Tests used:
[1] = tested on: phenylbenzoquinone-induced writhing in mice; assay: Writhing assay (phenylbenzoquinone-induced writhing); assay type: in vivo, mouse; conditions: 30 min before phenylbenzoquinone i.p., active = writhes significantly less than saline group; for Writhing Mouse Oral: screening dose 10 mg/kg oral (intragastric); for Writhing Mouse Subc.: screening dose 10 mg/kg subcutaneous
Procedure: Writhing assay. Male Charles River albino mice (CD-1/HAM/1LR) weighing between 20 and 30 grams were used. Thirty minutes after subcutaneous or intragastric administration of the test compound (0.1 ml/10 gram body weight), 0.025% (w/v) phenylbenzoquinone was injected intraperitoneally (0.1 ml/10 gram body weight). Five minutes later, each mouse was placed in a large glass beaker and the number of writhes that occurred in the subsequent ten minutes is counted. A writhe consisted of dorsoflexion of the back, extension of the hindlimbs, and strong contraction of the abdominal musculature. The test compound was considered to have produced analgesia in a mouse if the number of writhes elicited by phenylbenzoquinone was equal to or less than one-half the median number of writhes recorded for the saline-treated group that day. The results were expressed as the number of mice (out of a possible ten) in which the test compound produced analgesia. […] If the initial test dose of 10 mg/kg inhibited writhing in greater than 6 of 10 mice, the effect of additional doses was evaluated and an ED50 value was calculated using a maximum likelihood function.

[2] = molecular target: opiate receptors isolated from rat brain; assay: Opiate Binding Assay (displacement of 3H-Naloxone); conditions: concentration inhibiting specific binding of 1 nM 3H-Naloxone to rat brain receptor membranes by 50%
Procedure: Opiate Binding Assay. The test compounds were evaluated for their ability to displace the binding of ^3 H-Naloxone to opiate receptors isolated from rat brain. Male rats [Crl: CD(SD)BR] obtained from Charles River Laboratories (Portage, MI) were sacrificed by cervical dislocation. A purified homogenate of receptor membranes was prepared from the brains according to the method described by Chang and Cuatrecasas. (K.-J. Chang and P. Cuatrecasas. Multiple Opiate Receptors: Enkephalins And Morphine Bind To Receptors Of Different Specificity. J. Biol. Chem. 254, 2610-2618 (1979).) The brains were homogenized in 10 volumes of 0.32M sucrose and centrifuged twice at 6,000xg for 15 minutes. Following centrifugation of the supernatants at 40,000xg for 30 minutes, the pellets were resuspended in 5 mM tris-HCl, and centrifuged at 6,000. The supernatant was centrifuged at 40,000xg. The resuspension in 5 mM Tris-HCl was repeated twice. The final pellet was resuspended in 2 volumes of 50 mM tris HCl (pH 7.4). The homogenate was assayed for protein content according to the method of Itzhaki and Gill (R. F. Itzhaki and D. M. Gill. A Micro-Biuret Method for Estimating Proteins. Anal. Biochem. 9, 401-410 (1964)).
The binding of the test compounds to the receptor membrane preparation was measured using a modification of the method of Pert and Snyder (C. B. Pert and S. H. Synder. Properties of Opiate-Receptor Binding in Rat Brain. Proc. Natl. Acad. Sci. 70, 2243-2247 (1973)). The receptor assay was run using final concentrations of 1 nM ^3 H-Naloxone and of tissue homogenate (0.5 mg/ml of homogenate protein. Levorphanol (1×10^-5 M) was used as the displacer for non-specific binding. Final concentration of the test compounds was 10^-5 M. The assay was run in 0.05M tris HCl (pH 7.4). Total assay volume was 1.0 ml.
Samples were incubated at 25° C. for 60 min., filtered over Whatman GF/C glass fiber filters, and rinsed twice with 4 ml washes of ice-cold buffer. The filters were air-dried at 50° C. for 30 min. After drying 10 mls of PCS was added to the vial and the radioactivity determined using a Tracor Analytic Mark III liquid scintillation counter with a counting efficiency of 48%.
The IC50 values, the concentration of the test compounds which inhibited ^3 H-Naloxone specific binding to the opiate receptor by 50%, were obtained from log-logit plots of concentration-response curves.

[3] = tested on: brain opiate receptor sites; conditions: partially purified brain opiate receptor sites; Bradberry et al. 1976; cited from earlier work
rat = conditions: injected directly into the brain of the rat; Belluzi et al. 1976; cited from earlier work

2,6-dimethyl-D-tyrosyl-N-(3-phenylpropyl)-D-methioninamide, monohydrochloride [Example 15]
Writhing Mouse Oral [1]: Inactive | Writhing Mouse Subc. [1]: Inactive | IC50 [2]: 160 nM

2,6-dimethyl-L-tyrosyl-N-(3-phenylpropyl)-D-methioninamide, monohydrochloride [Example 14]
Writhing Mouse Oral [1]: Active | Writhing Mouse Subc. [1]: Active | IC50 [2]: 0.2 nM

2,6-dimethyl-L-tyrosyl-α-(methylsulfinyl)-N-(3-phenylpropyl)-D-α-aminobutanamide, monohydrochloride [Example 16]
Writhing Mouse Oral [1]: Active | Writhing Mouse Subc. [1]: Active | IC50 [2]: 0.4 nM

Cc1cc(O)cc(C)c1C[C@@H](N)C(=O)N[C@H](CC[S+](C)[O-])C(=O)NCCCc1ccccc1.Cl (stereo partly drawn) [Example 17, 2,6-dimethyl-D-tyrosyl-γ-(methylsulfinyl)-N-(3-phenylpropyl)-D-α-aminobutanamide, monohydrochloride]
Writhing Mouse Oral [1]: Inactive | Writhing Mouse Subc. [1]: Inactive | IC50 [2]: 96 nM

L-tyrosyl-N-(3-phenylpropyl)-D-methioninamide, monohydrochloride [Example 4]
Writhing Mouse Oral [1]: Inactive | Writhing Mouse Subc. [1]: Inactive | IC50 [2]: 16 nM

L-tyrosyl-γ-(methylsulfonyl)-N-(3-phenylpropyl)-DL-α-aminobutanamide, monohydrochloride [Example 8]
Writhing Mouse Oral [1]: Inactive | Writhing Mouse Subc. [1]: Inactive | IC50 [2]: 9.6 nM

methionine enkephalin
binding to brain opiate receptor sites [3]: binds stereospecifically | analgesic activity (rat): weak, fleeting analgesic activity
